Measured values from article PMC11661808 (ADMET & DMPK, 2024).
Where two headings read alike, the source gives them in different places. Each block holds one molecule with its values, some of them ahead of it.

Assays:
[1] = Ketoconazole concentration in plasma and ocular tissues after single topical ocular instillation; format: in vivo, Sprague Dawley rats; conditions: for concentration at 5 min / concentration at 120 min / concentration at 30 min: Sprague Dawley, rat, topical; for concentration at 120 min: 120 min post-dose; for concentration at 30 min: 30 min post-dose
Method: The mixture was stirred at 40 °C. Subsequently, 0.040 mL of 1 M hydrochloric acid was added, and the mixture was stirred at 40 °C until it was completely dissolved. 0.250 mL of hydroxypropyl beta-cyclodextrin (HPβCD) was added and vortexed and stirred at 40 °C until clear. 0.005 mL of 1 M sodium hydroxide was added to adjust the pH to 6.5-7.0 while stirring magnetically at 40 °C, and 0.038 mL of water was added, vortexed, and stirred at 40 °C until clear.
Each tissue was then homogenized using an Ultrasonic Cell Crusher for 5 seconds. The cornea and retina homogenates were sonicated for 10 min, while the vitreous was sonicated for 30 min at 0 °C prior to bioanalysis. The ocular tissue homogenates were stored in a -80 °C freezer before bioanalysis.
All samples underwent protein precipitation for pharmacokinetic analysis. Plasma and three types of tissue homogenate samples (50 μL each) were treated with 5 μL of methanol and then quenched with a 200 μL methanol and acetonitrile mixture (1:1, v/v) containing 50 ng/mL terfenadine as an internal standard (ISTD). After vortexing for 1 min and centrifuging at 4000 rpm for 15 min, the supernatant was transferred and diluted 10-fold with a methanol/water solution (1:1, v/v, containing 0.1 % formic acid) for LC-MS/MS analysis. The working solution was prepared with a concentration range of 50.0 to 100,000 ng/mL.
The quantitative sample analysis was performed on a Shimadzu LC-20AD (Shimadzu, Japan) - API 4000 mass spectrometer (SCIEX, Canada).

[2] = humans, cited from earlier work
[3] = in vivo
Method: (§1) Nine rats were randomly divided into three groups and their body weights were recorded from 254 to 281 g. […] Rats were sacrificed at 5, 30 and 120 min post-dose (n = 3 per time point). Cornea, retina, and vitreous humour samples were collected, washed in saline three times and weighed, while blood samples were taken from the heart puncture. Tissue samples were initially stored on dry ice, while the blood samples were centrifuged at 4 °C and 6000 rpm for 10 min. Subsequently, the plasma samples were prepared and also stored on dry ice. Ultimately, all samples were cryopreserved in a -80 °C freezer after harvest.
(§2) Rat plasma (400 RL, 44.4 LL/rat at each time point) was pooled from 3-time points utilizing the equal volume method and subsequently precipitated with acetonitrile containing 0.1 % formic acid at a ratio of 1:3. Homogenate samples of rat cornea, retina, and vitreous humour (600 L, 66.7 LL /rat) were pooled from three time points individually utilizing the equal volume and transferred into a 15 mL centrifuge tube and subjected to precipitation with acetonitrile containing 0.1 % formic acid at the same ratio of 1:3. Following centrifugation, the supernatant was evaporated under a stream of nitrogen gas. The residues from plasma and rat retina were reconstituted with 150 L of 10 % acetonitrile in H2O (with 0.1 % formic acid), while the residues from the rat cornea and vitreous humour were reconstituted with 100 L of 10 % acetonitrile in H2O (0.1 % formic acid). Four types of blank samples were processed in a similar manner. Ultimately, 10,L samples of each tissue were injected for analysis using the Ultimate 3000-Q-Exactive Plus system.
(§3) Mobile phase A consisted of water containing 0.1 % formic acid, while mobile phase B consisted of acetonitrile with 0.1 % formic acid. […] Mass scanning was performed on the Q-Exactive Plus using positive-ion full MS/dd-MS2 mode with a range from m/z 80 to 900. The collision energy was set at 30, 40 and 50 eV. The mass resolution was set as 70,000 for full MS, and 17,500 for dd-MS2 scans, and the mass error limit was set as 5.0 ppm.

[4] = Metabolite identification and profiling in pooled rat plasma, cornea, retina and vitreous humour after eye drop administration; conditions: for Relative peak area abundance, COR: pooled rat cornea homogenate (5, 30, 120 min); for Relative peak area abundance, PLA: pooled rat plasma (5, 30, 120 min); for Relative peak area abundance, VH: pooled rat vitreous humour homogenate (5, 30, 120 min)
Method: as §1, §2, §3

[5] = plasma, 300 μg per rat, rat plasma, read-out: mean concentration in plasma
[6] = selected ion chromatographic peak areas

concentration at 5 min ([1]; cornea, 150 μg per eye, rat cornea, left eye, 5 min post-dose, 150 μg per eye, read-out: mean concentration in cornea, left eye): 416000 ng/g | concentration at 5 min ([1]; cornea, 150 μg per eye, rat cornea, right eye, 5 min post-dose, 150 μg per eye, read-out: mean concentration in cornea, right eye): 430000 ng/g | concentration at 5 min ([1]; cornea, 300 μg per rat, mean ketoconazole concentration in cornea, rat cornea, 5 min post-dose, 300 μg/rat topical ocular): 423000 ng/g | concentration at 120 min ([1]; cornea, 300 μg per rat, mean ketoconazole concentration in cornea, rat cornea, mean of left and right eye): 8360 ng/g | concentration at 30 min ([1]; cornea, 300 μg per rat, rat cornea, mean of left and right eye, read-out: mean concentration in cornea): 113000 ng/g | concentration at 120 min ([1]; plasma, 300 μg per rat, mean ketoconazole concentration in plasma, rat plasma, 300 μg/rat topical ocular): 38.4 ng/mL | concentration at 5 min ([1]; plasma, 300 μg per rat, rat plasma, 5 min post-dose, read-out: mean concentration in plasma): 445 ng/mL | concentration at 30 min [1, 5]: 303 ng/mL | concentration at 120 min [1, 5]: 38.4 ng/mL | concentration at 5 min ([1]; retina, 150 μg per eye, rat retina, left eye, 5 min post-dose, 150 μg per eye, read-out: mean concentration in retina, left eye): 439 ng/g | concentration at 5 min ([1]; retina, 150 μg per eye, rat retina, right eye, 5 min post-dose, 150 μg per eye, read-out: mean concentration in retina, right eye): 552 ng/g | concentration at 5 min ([1]; retina, 300 μg per rat, mean ketoconazole concentration in retina, rat retina, 5 min post-dose, 300 μg/rat topical ocular): 4960 ng/g | concentration at 120 min ([1]; retina, 300 μg per rat, mean ketoconazole concentration in retina, rat retina, mean of left and right eye): 94.4 ng/g | concentration at 30 min ([1]; retina, 300 μg per rat, rat retina, mean of left and right eye, read-out: mean concentration in retina): 1470 ng/g | concentration at 5 min ([1]; vitreous humour, 150 μg per eye, rat vitreous humour, left eye, 5 min post-dose, 150 μg per eye, read-out: mean concentration in vitreous humour, left eye): 1120 ng/g | concentration at 5 min ([1]; vitreous humour, 150 μg per eye, rat vitreous humour, right eye, 5 min post-dose, 150 μg per eye, read-out: mean concentration in vitreous humour, right eye): 1180 ng/g | concentration at 5 min ([1]; vitreous humour, 300 μg per rat, mean ketoconazole concentration in vitreous humour, rat vitreous humour, 5 min post-dose, 300 μg/rat topical ocular): 1190 ng/g | concentration at 120 min ([1]; vitreous humour, 300 μg per rat, mean ketoconazole concentration in vitreous humour, rat vitreous humour, mean of left and right eye): 116 ng/g | concentration at 30 min ([1]; vitreous humour, 300 μg per rat, rat vitreous humour, mean of left and right eye, read-out: mean concentration in vitreous humour): 713 ng/g | mean peak plasma concentration ([1]; rat plasma, 5 min post-dose, 300 μg/rat topical ocular): 445 ng/mL
SMILES: CC(=O)N1CCN(c2ccc(OCC3COC(Cn4ccnc4)(c4ccc(Cl)cc4Cl)O3)cc2)CC1 (centres unmarked) [Ketoconazole]
biphasic elimination, thereafter ([2]; after the first 10 h): 8 h | biphasic elimination, during the first 10 h ([2]; first 10 h): 2 h | time to maximum plasma concentration [2]: 1 to 2 h

SMILES: Clc1ccc([C@@]2(Cn3ccnc3)OC[C@H](COc3ccc(N4CCNCC4)cc3)O2)c(Cl)c1 [M4 (DAK), N-deacetyl ketoconazole]
detection in rat plasma ([3]; Sprague Dawley): No N-deacetyl ketoconazole (M4) was found | Relative peak area abundance, COR ([3]; Sprague Dawley, rat): 0.2% | detection in rat plasma [3]: not detected

Relative peak area abundance, COR [4, 6]: 1.1% | Relative peak area abundance, PLA [4, 6]: 0.1% | Relative peak area abundance, RET ([4]; pooled rat retina homogenate (5, 30, 120 min), selected ion chromatographic peak areas): 1.2% | Relative peak area abundance, VH [4, 6]: 0.6% | abundance of dominant metabolite in cornea, retina ([4]; rat cornea, retina): 1.1-1.2%
SMILES: OC[C@H]1CO[C@](Cn2ccnc2)(c2ccc(Cl)cc2Cl)O1 [Metabolite M2]

SMILES: CC(=O)N1CCN(c2ccc(OC[C@H]3CO[C@](Cn4ccnc4)(c4ccc(Cl)cc4Cl)O3)cc2)CC1O (some centres unmarked) [Metabolite M1]
Relative peak area abundance, COR [4, 6]: D (detected in trace amount (the relative abundance was less than 0.1 %)) | Relative peak area abundance, VH [4, 6]: D (detected in trace amount (the relative abundance was less than 0.1 %))

Relative peak area abundance, COR [4, 6]: 0.1% | Relative peak area abundance, PLA [4, 6]: 0.6%
SMILES: CC(=O)N1CCN(c2ccc(OC[C@H]3CO[C@](CN)(c4ccc(Cl)cc4Cl)O3)cc2)CC1 [Metabolite M6]
